In patent publication US8748464B2, “Use of SIRT1 activators or inhibitors to modulate an immune response” (The J. David Gladstone Institutes, priority 2008, dated 2014):

Tests used:
[1] = tested on: FLAG-FoxP3 in 293 T cells; assay: Immunoprecipitation/western blot of acetylated FLAG-FoxP3 or HA-AML1/Runx1 in 293 T cells cotransfected with p300; format: cell-based
From the text: FIGS. 10A-D. SIRT1 interacts with FoxP3 and inhibition of SIRT1 deacetylase activity increases acetylation of FoxP3. (A) Communoprecipitation/western blot analysis of FLAG-tagged FoxP3 and HA-tagged SIRT1 after transfection of corresponding expression vectors or empty vector controls into 293T cells. (B) Communoprecipitation assay of SIRT1 and FoxP3 deletion mutants. A schematic summary of the binding of FoxP3 mutants to SIRT1 is shown. The forkhead box (FH) indicates the DNA binding domain ZnF, zinc finger domain; LZ, leucine zipper. […] An expression vector for the p300 acetyltransferase was cotransfected with FoxP3. (D) The same experiment as in (C) using HA-AML1/Runx1. Immunoprecipitations were performed with either anti-FLAG antibody coupled to agarose (α-FLAG agarose) (C) or anti-hemagglutinin antibody coupled to agarose (α-HA agarose) (D) and western blotting with rabbit polyclonal antibody to acetyl-lysine (α-acetyl lysine) (α-AcK), α-FLAG or α-HA antibodies.

[2] = tested on: FLAG-FoxP3 in 293 T cells; assay: Western blot of FLAG-FoxP3 (wild type or mutant) or FLAG-AML1/Runx1 expression in 293 T cells; format: cell-based; details: for expression of FLAG-AML1/Runx1 / FoxP3 protein expression: Ex-527 50 μM or TSA 400 nM, 16 hours; for FoxP3 protein expression: nicotinamide 5 mM
Method: To determine whether the three newly identified acetylated lysine residues regulate FoxP3 stability, mutants were generated in which each of three lysine residues was substituted to arginines (KR), a conservative mutation that preserves the positive charge of the residue.
To investigate the effect of SIRT1 inhibition and the three newly identified acetylation sites on FoxP3 protein stability, wild type and 3KR mutant FoxP3 protein expression was measured after treatment with cycloheximide (CHX), a general inhibitor of protein translation.
(B) Scheme of acetylated lysine residues identified by mass spectrometry using immunoprecipitated FLAG-FoxP3 protein. The murine protein is shown.

[3] = tested on: naïve CD4+ T cells undergoing differentiation into iTreg cells; assay: Intracellular flow cytometry of FoxP3 in naïve CD4+ T cells differentiating into iTreg cells; format: cell-based, mouse
Method: To gain insight into the role of SIRT1 in Treg biology, SIRT1 protein expression during ex vivo Treg differentiation was analyzed. Naïve CD4^+ T cells (CD4+CD25-CD69-CD44-) were isolated from mouse spleen and lymph nodes and were activated by anti-CD3/CD28 antibodies alone or in combination with cytokines driving differentiation into T helper (Th) 1, Th2 or induced Treg (iTreg) cells. While SIRT1 expression was increased upon CD3/CD28 activation, it was decreased after T cell differentiation, most noticeably in iTregs (FIG. 9A, lane 5).
To test whether SIRT1 plays a role in iTreg differentiation, SIRT1 was overexpressed during iTreg differentiation. Activated CD4+ cells were infected with bicistronic retroviral vectors expressing SIRT1 and the Thy1.1 surface marker (MSCV-SIRT1-Thy1.1) or a control vector expressing Thy1.1 alone (MSCV-Thy1.1). Cell were further differentiated into Tregs in the presence of recombinant human TGF-β and recombinant human IL-2 as previously described (Fu et al., 2004). After 3 days, cells were stained for surface Thy1.1 and intracellular FoxP3 and analyzed by flow cytometry. […] Cells were cultured 3 more days in IL-2 alone and were reanalyzed at day 6 after infection. Both, the number of FoxP3^+/Thy1.1^+ cells and FoxP3 MFI were decreased in SIRT1-expressing cells (FIG. 9B). The opposite result was observed when SIRT1 was knocked down during iTreg differentiation using lentiviral shRNA vectors.
To test the effect of Ex-527 on FoxP3 expression in […] FoxP3-expressing cells, Ex-527 was added to naïve CD4+ T cells undergoing differentiation into iTreg cells. The number of FoxP3-expressing cells increased up to 3-fold in the presence of Ex-527 as compared to cells treated with the drug vehicle alone (FIG. 12A). […]
FIGS. 12A and 12B. […] (B) Flow cytometry of GFP in natural Treg populations isolated from GFP-FoxP3 knock-in mice, in which GFP is expressed as a fusion protein with FoxP3. […] Cells were further cultured with either DMSO or Ex-527 for additional 2 and 7 days and FoxP3 expression was analyzed as in (A). […]

[4] = tested on: natural thymus-derived Treg cells; assay: Ex vivo expansion of natural Tregs from GFP-Foxp3 knock-in mice, flow cytometry of GFP and western blot; format: cell-based, mouse
Method: To test the effect of Ex-527 in natural thymus-derived Treg cells, GFP+ cells were isolated from GFP-Foxp3 knock-in mice, in which green fluorescent protein (GFP) is expressed as a fusion protein with FoxP3. Total CD4+ T cells were isolated from spleen and lymph nodes of these mice, and GFP+ T cells were sorted with >95% purity. GFP+ T cells were expanded by anti-CD3/CD28 beads and IL-2 for 5 days when Ex-527 or dimethylsulfoxide (DMSO) was added. Two days later, 75% of cells were GFP-positive regardless whether Ex-527 was added or not; however, the MFI of GFP was increased in Ex-527-treated cells (FIG. 12B, day 7). 7 days later, only 5% of cells remained GFP-positive in control-treated cells versus 45% in Ex-527-treated cultures (FIG. 12B, day 12). In addition, the […] of FoxP3 remained higher in Ex-527-treated cells versus control-treated cells (387 versus 263). […] No FoxP3 expression was detected from either GFP-negative cells or cells expanded in the absence of Ex-527 (FIG. 12B). […] Thus, SIRT1 inhibitors, e.g., Ex-527, can be used to maximize ex vivo or in vivo expansion of Tregs for therapeutic purposes.
FIGS. 12A and 12B. Inhibition of SIRT1 activity by Ex-527 promotes differentiation of iTreg cells and FoxP3 expression in nTreg cells. (A) Intracellular flow cytometry (% FoxP3+ cells and MFI) of FoxP3 in induced Tregs treated during differentiation with Ex-527 (50 μM) or DMSO as control. Shown are averages of three independent experiments (mean±SD). (B) Flow cytometry of GFP in natural Treg populations isolated from GFP-FoxP3 knock-in mice, in which GFP is expressed as a fusion protein with FoxP3. GFP+ nTregs were expanded by α-CD3/CD28 beads and hIL-2 (2000 U/ml) for 5 days. Cells were further cultured with either DMSO or Ex-527 for additional 2 and 7 days and FoxP3 expression was analyzed as in (A). Western blot analysis of FoxP3 in cell lysates from GFP−, GFP+, and GFP+ cultures expanded as described in the presence of DMSO or EX-527.

[5] = tested on: Jurkat T cells; assay: IL-2 protein ELISA in supernatant of α-CD3-stimulated Jurkat T cells infected with EF-1α-GFP or EF-1α-Tat-GFP viruses; format: cell-based, human; details: 16 hrs
Method: Lentiviral vectors, which contained the heterologous elongation factor 1α (EF-1α) promoter driving Tat and GFP expression, were generated. High titer viral stocks were produced and used to infect Jurkat T cells. […] Infected cultures were stimulated with antibodies specific for the CD3 receptor and treated with increased concentrations of resveratrol (0.4 μM, 2 μM, and 10 μM), a known SIRT1 activator for 16 hrs. IL-2 protein was measured in the culture supernatant by ELISA assay. Following stimulation with α-CD3 antibody, IL-2 protein was superinduced ˜4-fold by wild type Tat (FIG. 8A). In cells expressing Tat, ˜2300 pg/ml of IL-2 protein was detected in response to α-CD3 treatment, whereas in control cells, only ˜600 pg/ml of IL-2 protein was induced.
The effects of small molecule of SIRT1 ([…]) on T cell hyperactivation in Tat-expressing cells were examined. Jurkat T cells were infected with EF-1α-GFP or EF-1α-Tat-GFP viruses (FIG. 8B). Infected cultures were stimulated with α-CD3 antibody and treated with SRT2183 (0.2, 1, and 5 μM) for 16 hrs.
FIGS. 8A and 8B. Resveratrol and small molecule activator of SIRT1 (SRT2183) suppresses T cell hyperactivation by Tat. (A) IL-2 protein levels measured by ELISA in the supernatant of infected cultures. 24 hrs after infection with EF1α-GFP and EF1α-Tat-GFP viruses, Jurkat T cells were stimulated with α-CD3 antibody in the presence of increased concentrations of resveratrol (0.4, 2, and 10 μM) for 16 hrs. (B) 24 hrs after infection with EF1α-GFP and EF1α-Tat-GFP viruses, Jurkat T cells were stimulated with α-CD3 antibody in the presence of increased concentrations of SRT2183 (0.2, 1, and 5 μM) for 16 hrs. IL-2 protein levels were measured by ELISA in the supernatant of infected cultures.

[6] = 50 μM during iTreg differentiation
[7] = day 7 (two days after addition)

CC(/C=C/C(=O)NO)=C\[C@@H](C)C(=O)c1ccc(N(C)C)cc1 [trichostatin A]
acetylation levels of FoxP3 [1]: hyperacetylation
acetylation of AML1/Runx1 [1]: increased to the same extent
expression of FLAG-AML1/Runx1 ([2]; 293 T cells): increased both FoxP3 and AML1/Runx1 expression
FoxP3 protein expression ([2]; 293 T cells): increased both FoxP3 and AML1/Runx1 expression

NC(=O)C1CCCc2c1[nH]c1ccc(Cl)cc21 (centres unmarked) [Ex-527, 6-chloro-2,3,4,9-tetrahydro-1H-carbazole-1-carboxamide]
FoxP3 mRNA levels ([2]; 293 T cells): No effect
expression of K31R mutant FLAG-FoxP3 ([2]; 293 T cells, 50 μM): increased expression of the K31R mutant to comparable levels as the wild type FoxP3 protein
expression of K262/267R double mutant FLAG-FoxP3 ([2]; 293 T cells, 50 μM): could not further increase
increase of expression of K262R and K267R mutant FLAG-FoxP3 ([2]; 293 T cells, 50 μM): less visible
expression of FLAG-AML1/Runx1 ([2]; 293 T cells): unchanged
FoxP3 protein expression ([2]; 293 T cells): increased FoxP3 protein expression to a similar extent as nicotinamide
wild type FoxP3 protein expression after cycloheximide ([2]; 4 h of CHX treatment): stabilized FoxP3 protein expression
3KR mutant FoxP3 protein expression after cycloheximide ([2]; 4 hour-time point of CHX treatment): no further stabilization
increase of mean fluorescent intensity (MFI) of FoxP3 expression [3, 6]: up to 2 fold
increase of number of FoxP3-expressing cells vs drug vehicle [3, 6]: up to 3 fold
FoxP3 mRNA levels in iTreg cells ([3]; during iTreg differentiation): no effect
GFP-positive cells [4, 7]: 75%
MFI of GFP [4, 7]: increased
FoxP3 expression by western blot analysis ([4]; day 12): remained visible
MFI of FoxP3 ([4]; day 12): 387
GFP-positive cells ([4]; day 12 (7 days after addition)): 45%

O=C(Nc1ccccc1-c1cn2c(CN3CC[C@@H](O)C3)csc2n1)c1ccc2ccccc2c1 [SRT2183]
IL-2 protein in Tat expressing cells ([5]; 5 μM): suppressed the production of IL-2 protein
IL-2 protein in control cells ([5]; 5 μM): slight increase in IL-2 protein
IL-2 protein in control and Tat expressing cells ([5]; 0.2 and 1 μM): caused increases in IL-2 protein
